According to EP4638411B1, “PLASTICIZER” (priority 2022, dated 2024):

How the values were obtained:
[1] = HCl residual stability of plasticized PVC films at 200 °C; details: PVC film, 60 phr plasticizer
Excerpt: Rezeptur: siehe nachfolgende Tabelle 5. Tabelle 5.
150 g PVC (Homopolymeres Suspensions-PVC, Markenname Inovyn® 271 PC); 90 g Weichmacher-Zusammensetzung und 3 g Ba/Zn-Stabilisator, Markenname Baerostab® UBZ 760 XLP RF wurden mit einem Handmixer bei Raumtemperatur vermischt. Die Mischung wurde anschließend auf einem ölbeheizten Labormischwalzwerk (Fa. Collin, Automatikwalzwerk Typ W250M, Durchmesser: 252 mm, Breite: 450 mm) plastifiziert und zu einem Walzfell verarbeitet. Die Temperatur der beiden Walzen betrug jeweils 180 °C; die Drehzahlen lagen bei 15 Umdrehungen/min. (vordere Walze) und 12 Umdrehungen/min. (hintere Walze); die Walzzeit betrug 5 Minuten. Der Walzenspalt wurde auf 0,5 mm eingestellt. Man erhielt so ein Walzfell mit einer Dicke von 0,53 mm. Das abgekühlte Walzfell wurde anschließend bei einer Temperatur von 190 °C und einem Druck von 150 bar innerhalb von 180 s auf einer Presse vom Typ "Laborplattenpresse 400 P" der Fa. Collin zu einer Weich-PVC-Folie mit einer Dicke von 0,50 mm verpresst. Unter Beibehaltung des Pressdrucks wurde die Pressfolie innerhalb von 10 Minuten auf ca. 40 °C abgekühlt.
Die Bestimmung der HCl-Reststabilität erfolgt nach DIN EN 60811-405 (VDE 0473-811-405): Als Prüfgerät wird ein Metallblock-Thermostat von Liebisch Labortechnik bei einer Prüftemperatur von 200 °C verwendet. Es wird immer eine 3-fach Bestimmung vorgenommen. Ca. 50 mg der Walzfolien werden abgewogen, auf 3 cm Länge zugeschnitten und im unteren Teil des Glasröhrchens positioniert. Am oberen Ende des Glasröhrchens wird ein ca. 10 mm langer Indikatorpapierstreifen (Lackmusspapier) so positioniert, dass ca. 2 mm herausstehen. Die so präparierten Glasröhrchen werden in den Metallblock positioniert und die Zeit notiert, bis ein Farbumschlag in Richtung Rot auftritt. Aus den drei Messwerten der drei Proben wird der arithmetische Mittelwert gebildet.

[2] = Density at 20 °C (DIN 51757 method 4); type: physicochemical; details: DIN 51757 Verf. 4
Excerpt: (§1) Die nachfolgende Tabelle 3 gibt die Eigenschaften der wie oben beschriebenen Verbindungen wieder. Tabelle 3.

[3] = Acid number (DIN EN ISO 2114); type: physicochemical
Excerpt: as §1

[4] = Refractive index nD20 (DIN 51423-2); type: physicochemical
Excerpt: as §1

[5] = Water content (DIN 51777-1); type: physicochemical
Excerpt: as §1

[6] = Viscosity at 20 °C (DIN 51562-1); type: physicochemical
Excerpt: as §1

[7] = Dissolution (gelling) temperature of PVC in plasticizer, plate/plate rheometer, temperature at viscosity maximum; type: physicochemical; details: 5 phr PVC, 95 phr plasticizer, 2 phr Ba-Zn stabilizer; 5 °C/min; mean of four measurements
Excerpt: Anwendungstechnische Prüfungen: II.a) Bestimmung der Lösetemperatur der offenbarungsgemäßen Weichmacher-Zusammensetzungen: Zur Bestimmung der Lösetemperatur der offenbarungsgemäßen Weichmacher-Zusammensetzungen wurden etwa 10 Gramm einer Mischungen nach folgender Rezeptur (siehe Tabelle 4) hergestellt. Die Mischung wird mit einer Pipette aufgerührt und dann sofort ca. 30 Tropfen der homogenen Mischung auf das Platte-Platte-Messsystem gegeben. Tabelle 4.
Die Viskositätsmessungen wurden mit einem beheizbaren Oszillations- und Rotations-Rheometer MCR 302 von Anton Paar in einem Rotationsversuch durchgeführt.
Die Messung erfolgte in zwei Rampen. Die erste Rampe für die Dauer von 120 s bei D=10 (1/s) und 30 °C dient zum Temperieren der Probe. Die zweite Rampe bei D=10 (1/s) und kontinuierlicher Temperatursteigerung von 5 °C min ist dann die eigentliche Messung. Der Abbruch erfolgte manuell, nachdem das Viskositätsmaximum überschritten war. Als Ergebnis der Messung wird die Temperatur ermittelt, bei der das Maximum der Viskosität erreicht ist. Diese Messungen werden insgesamt viermal durchgeführt und der arithmetische Mittelwert aller vier Messungen als das Endergebnis gewertet. Il.b) Herstellung und Prüfung von Weich-PVC-Folien hergestellt unter Einsatz erfindungsgemäßer Weichmacher-Zusammensetzungen

Compound	HCl-Reststabilität [1]	Dichte, 20 °C [2]	Säurezahl [3]	Brechzahl, n^D20 [4]	Wassergehalt [5]	Viskosität, 20 °C [6]	Lösetemperatur [7]
4-Oxoheptandisäure-di-isotridecylester [Verbindung I.6]	12 min	0,9365 g/cm^3	0,31 mg KOH/g	1,4605	0,016 Gew.-%	101 mPa·s	162 °C
CCCCC(CC)COC(=O)CCC(=O)CCC(=O)OCC(CC)CCCC (stereo not shown) [4-Oxoheptandisäure-di-(2-ethylhexylester), reference compound]	11,1 min	0,9661 g/cm^3	1,5 mg KOH/g	1,4534	0,07 Gew.-%	32 mPa·s	127 °C
CCCCCC(CCC)COC(=O)CCC(=O)CCC(=O)OCC(CCC)CCCCC (stereo not shown) [Verbindung I.1, 4-Oxoheptandisäure-di-(2-propylheptylester)]	15 min	0,9473 g/cm^3	1,1 mg KOH/g	1,4553	0,003 Gew.-%	51 mPa·s	139 °C
CC(C)CCCC(C)CCOC(=O)CCC(=O)CCC(=O)OCCC(C)CCCC(C)C (stereo not shown) [Verbindung I.2, 4-Oxoheptandisäure-di-(3,7-dimethyloctylester)]	13,4 min	0,9456 g/cm^3	0,26 mg KOH/g	1,5160	0,013 Gew.-%	52 mPa·s	147 °C
